Laboratory results reported in US12663415B2, “Chromogenic and fluorogenic compounds and their use for biological detection” (AAT Bioquest, Inc., priority 2022, dated 2026).
Starred links: 1 amine or outer side, 2 acyl side, 3 side chain; linkers in the order of their positions; H or OH if unused. Positions of bridges follow the written chain, without caps; N, C: chain ends. Residues, ends and D or L forms follow the SMILES beside them. Chains are numbered I, II in the order given. Rhodamine110 = O=C1OC2(c3ccc(N[*:1])cc3Oc3cc(N[*:2])ccc32)c2ccccc21

Legend:
Caspase 3/7 = assay: Detection of apoptosis / caspase 3/7 activities in Jurkat cells, whole cell assay; format: cell-based; details: staurosporine 0.5 μg/ml 2 hours, 50 μM substrate 2 hours at 37° C., Ex/Em=540/620 nm
Protocol: FIG. 3. Illustrates the detection of Caspase 3/7 activities in Jurkat cells with Compound 4. Jurkat cells are seeded on the same day at 200,000 cells/90 μL/well in a Costar black wall/clear bottom 96-well plate. The cells are treated with or without 1 μM of staurosporine for 5 hours. The caspase 3/7 working solution (100 μL/well) are added and incubated at room temperature for 1 hour. The fluorescence intensity is measured at Ex/Em=540/620 nm (Cutoff=610 nm) with FlexStation fluorescence microplate reader.
Jurkat T leukemia cells are grown in RPMI 1640 media (Life Technologies, Inc.) and 10% FCS (Sigma Chemical Company) in a 5% CO2-95% humidity incubator at 37° C., and maintained at a cell density between 4 and 8×10^5 cells/ml. Cells were harvested at 200×g and resuspended at 1×10^6 cells/ml into RPMI 1640 media containing 10% FCS and 1 ml each were dispensed in 2-wells of a 6-well plate. The apoptosis inducer staurosporine is added at 0.5 μg/ml concentration and the plate is incubated for 2 hours at 37° C. in a 5% CO2-95% humidity incubator. Cells are incubated with 50 μM of substrate Compound 4 for 2 hours at 37° C. in serum-free RPMI medium. The samples are analyzed with a fluorescence microplate reader (top or bottom read mode) at Ex/Em=540/620 nm (Cutoff=610 nm).

E. coli endotoxin = assay: Detection of endotoxin with Limulus Amebocyte Lysate (LAL) and fluorogenic substrate; format: biochemical; details: Ex/Em=490/525 nm
Protocol: FIG. 5. Illustrates the detection of E. coli endotoxin with an exemplary compound. E. coli endotoxin is measured in a black/solid bottom 96-well plate with Compound 7. The fluorescence intensity is recorded using a Gemini microplate reader at Ex/Em=490/525 nm, cutoff=515 nm. As low as 0.001 EU/mL of E. coli endotoxin can be detected.
Endotoxin is the major component of the outer membrane of Gram-negative bacteria. endotoxin is a potent stimulator of the vertebrate innate immune system and can cause fever, septic shock and eventually death. It is recognized as a biomarker for the detection of bacterial pathogen invasion and is responsible for the development of inflammatory response and endotoxic shock in extreme cases. […] The LAL enzymatic cascade can be activated by endotoxin at pH 6.0 to 7.5, and the amount of activated enzyme present can be measured by its ability to cleave the fluorogenic and/or chromogenic substrate. […] The endotoxin activity is proportional to the fluorescence intensity of rhodamine 110 resulting from the hydrolysis of Compound 7. The concentration of endotoxin in a sample can be calculated from a standard curve. […] The fluorescence intensities of the test sample solutions are recorded with a fluorescence microplate reader at Ex/Em=490/525 nm within 10-30 minutes.

Molecule: Compound 4 (DVED)
- cleavage of the caspase-3/7 substrate on induction of apoptosis (Caspase 3/7): leads to cleavage

Molecule: CCC(C)C(NC(C)=O)C(=O)NC(CCC(=O)O)C(=O)NC(C)C(=O)NC(CCCNC(=N)N)C(=O)Nc1ccc2c(c1)Oc1cc(NC(=O)C(CCCNC(=N)N)NC(=O)C(C)NC(=O)C(CCC(=O)O)NC(=O)C(NC(C)=O)C(C)CC)ccc1C21OC(=O)c2ccccc21 (stereo not drawn) [Compound 7] (I: Ac-IEAR / II: Ac-IEAR; linker I:C-II:C via Rhodamine110; configuration not given here)
- lowest detectable E. coli endotoxin (E. coli endotoxin; 96-well plate, cutoff=515 nm): 0.001 EU/mL
- fluorescence of hydrolyzed product (rhodamine 110) after hydrolysis by LAL in the presence of endotoxins (E. coli endotoxin; LAL 100 U, 10 uM substrate): strong green fluorescence
